Where two headings read alike, the source gives them in different places.
Target: human Cav2.2 (Homo sapiens, UniProt Q00975)
Assay: Assessment of calcium channel activity using FLIPR (Ca2+ influx in IMR32 cells)
Assay type: cell-based
Summary of the method: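 Human neuroblastoma IMR32 cells were seeded at 1−1.2×10^5 cells/well and cultured 48 h at 37 °C before FLIPR calcium influx measurement. Percent inhibition at each concentration was calculated against the no-inhibitor signal, and IC50 came from sigmoidal dose-response fits.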

[1] = read-out: IC50 (μM) or percent inhibition (* indicates 3 minute incubation, otherwise 60 minute), IC50, 60 minute pre-incubation with compound, IMR32 cells, 80 mM KCl depolarization

Chain of human Cav2.2 (Q00975 whole entry): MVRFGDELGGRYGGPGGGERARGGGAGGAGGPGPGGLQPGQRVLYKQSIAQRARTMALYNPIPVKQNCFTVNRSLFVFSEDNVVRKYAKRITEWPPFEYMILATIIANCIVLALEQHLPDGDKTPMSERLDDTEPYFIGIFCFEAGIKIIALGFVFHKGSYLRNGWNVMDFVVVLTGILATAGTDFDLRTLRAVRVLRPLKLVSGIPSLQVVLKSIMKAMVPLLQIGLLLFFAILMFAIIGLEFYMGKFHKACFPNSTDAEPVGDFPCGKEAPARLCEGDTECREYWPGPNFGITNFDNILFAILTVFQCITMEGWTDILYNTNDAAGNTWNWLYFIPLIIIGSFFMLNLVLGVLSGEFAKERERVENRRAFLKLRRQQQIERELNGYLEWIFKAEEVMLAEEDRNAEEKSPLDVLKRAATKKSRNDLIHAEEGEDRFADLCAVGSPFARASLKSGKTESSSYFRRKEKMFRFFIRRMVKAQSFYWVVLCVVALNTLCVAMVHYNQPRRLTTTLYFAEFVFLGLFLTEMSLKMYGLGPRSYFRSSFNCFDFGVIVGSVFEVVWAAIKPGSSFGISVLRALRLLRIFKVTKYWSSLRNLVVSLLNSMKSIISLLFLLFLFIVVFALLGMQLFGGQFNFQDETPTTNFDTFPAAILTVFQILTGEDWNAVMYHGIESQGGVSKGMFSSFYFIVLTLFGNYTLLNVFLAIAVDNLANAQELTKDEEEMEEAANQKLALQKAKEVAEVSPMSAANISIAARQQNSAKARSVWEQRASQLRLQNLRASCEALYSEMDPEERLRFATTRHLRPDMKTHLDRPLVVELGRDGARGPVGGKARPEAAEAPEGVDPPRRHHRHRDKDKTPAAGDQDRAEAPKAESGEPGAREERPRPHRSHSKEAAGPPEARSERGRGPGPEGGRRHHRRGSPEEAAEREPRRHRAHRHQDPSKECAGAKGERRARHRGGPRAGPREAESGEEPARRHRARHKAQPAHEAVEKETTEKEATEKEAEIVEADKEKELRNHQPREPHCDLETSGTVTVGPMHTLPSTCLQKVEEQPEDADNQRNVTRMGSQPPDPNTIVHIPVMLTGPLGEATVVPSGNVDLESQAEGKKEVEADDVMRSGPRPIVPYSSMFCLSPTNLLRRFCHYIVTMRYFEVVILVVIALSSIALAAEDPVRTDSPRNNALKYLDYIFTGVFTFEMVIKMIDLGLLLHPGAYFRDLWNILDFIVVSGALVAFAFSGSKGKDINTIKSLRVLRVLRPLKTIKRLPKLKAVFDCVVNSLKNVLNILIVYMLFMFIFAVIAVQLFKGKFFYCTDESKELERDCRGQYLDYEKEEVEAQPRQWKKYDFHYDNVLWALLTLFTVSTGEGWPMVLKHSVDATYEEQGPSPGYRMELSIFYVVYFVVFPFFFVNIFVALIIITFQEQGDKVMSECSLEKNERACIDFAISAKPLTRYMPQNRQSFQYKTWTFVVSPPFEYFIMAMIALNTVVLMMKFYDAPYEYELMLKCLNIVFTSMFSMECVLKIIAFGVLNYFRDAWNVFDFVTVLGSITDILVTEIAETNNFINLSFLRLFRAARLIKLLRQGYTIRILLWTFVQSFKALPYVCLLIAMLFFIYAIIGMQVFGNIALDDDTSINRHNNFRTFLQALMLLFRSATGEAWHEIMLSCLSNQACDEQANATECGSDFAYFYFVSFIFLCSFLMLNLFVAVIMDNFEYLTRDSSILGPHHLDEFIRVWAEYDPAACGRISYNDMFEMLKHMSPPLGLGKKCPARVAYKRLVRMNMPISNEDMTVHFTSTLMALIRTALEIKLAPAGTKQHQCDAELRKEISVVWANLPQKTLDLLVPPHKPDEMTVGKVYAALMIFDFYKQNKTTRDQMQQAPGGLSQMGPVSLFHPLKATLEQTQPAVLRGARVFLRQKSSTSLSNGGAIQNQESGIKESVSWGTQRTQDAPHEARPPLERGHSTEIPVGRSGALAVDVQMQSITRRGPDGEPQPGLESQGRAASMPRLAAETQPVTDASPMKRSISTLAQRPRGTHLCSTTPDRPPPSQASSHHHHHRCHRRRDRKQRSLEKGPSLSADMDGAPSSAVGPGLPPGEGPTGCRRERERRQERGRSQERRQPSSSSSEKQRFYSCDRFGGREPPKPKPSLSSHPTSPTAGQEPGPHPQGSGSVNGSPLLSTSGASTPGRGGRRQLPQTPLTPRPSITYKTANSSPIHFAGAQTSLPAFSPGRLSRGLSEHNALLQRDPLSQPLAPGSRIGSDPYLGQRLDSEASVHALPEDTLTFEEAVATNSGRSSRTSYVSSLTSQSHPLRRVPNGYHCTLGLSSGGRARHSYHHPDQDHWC
Chain of human Cav2.2 (P54289 25-956 partner limits assumed): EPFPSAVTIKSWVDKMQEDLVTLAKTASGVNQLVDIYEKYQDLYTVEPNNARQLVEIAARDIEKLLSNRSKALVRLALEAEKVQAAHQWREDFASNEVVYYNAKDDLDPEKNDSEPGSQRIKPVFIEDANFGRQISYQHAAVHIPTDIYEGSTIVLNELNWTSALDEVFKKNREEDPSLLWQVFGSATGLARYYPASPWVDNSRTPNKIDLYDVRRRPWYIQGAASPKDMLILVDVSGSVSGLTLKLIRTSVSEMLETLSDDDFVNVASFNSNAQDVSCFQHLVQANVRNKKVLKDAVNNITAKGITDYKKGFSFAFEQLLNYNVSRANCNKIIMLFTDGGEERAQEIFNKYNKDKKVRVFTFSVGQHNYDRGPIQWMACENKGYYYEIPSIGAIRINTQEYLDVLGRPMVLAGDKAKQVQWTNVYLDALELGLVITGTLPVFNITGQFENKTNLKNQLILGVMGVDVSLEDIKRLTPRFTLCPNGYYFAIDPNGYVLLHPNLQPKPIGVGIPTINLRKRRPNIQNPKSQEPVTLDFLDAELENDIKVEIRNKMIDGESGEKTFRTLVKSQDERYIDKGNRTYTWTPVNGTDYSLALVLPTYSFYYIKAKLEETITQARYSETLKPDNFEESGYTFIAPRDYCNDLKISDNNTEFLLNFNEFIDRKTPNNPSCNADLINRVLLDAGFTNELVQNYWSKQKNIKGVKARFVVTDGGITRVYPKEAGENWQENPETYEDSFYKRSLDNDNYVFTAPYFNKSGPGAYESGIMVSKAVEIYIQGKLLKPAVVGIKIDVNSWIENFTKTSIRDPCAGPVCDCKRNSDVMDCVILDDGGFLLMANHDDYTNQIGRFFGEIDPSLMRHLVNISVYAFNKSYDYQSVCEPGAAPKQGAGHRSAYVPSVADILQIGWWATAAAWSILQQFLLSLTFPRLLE
Chain of human Cav2.2 (P54289 957-1103 partner limits assumed): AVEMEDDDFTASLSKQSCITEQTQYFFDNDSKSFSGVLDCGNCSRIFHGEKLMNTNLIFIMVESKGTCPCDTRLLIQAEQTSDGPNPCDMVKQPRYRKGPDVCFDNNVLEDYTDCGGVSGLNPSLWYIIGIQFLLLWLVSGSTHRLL
Chain of human Cav2.2 (P54284 whole entry partner): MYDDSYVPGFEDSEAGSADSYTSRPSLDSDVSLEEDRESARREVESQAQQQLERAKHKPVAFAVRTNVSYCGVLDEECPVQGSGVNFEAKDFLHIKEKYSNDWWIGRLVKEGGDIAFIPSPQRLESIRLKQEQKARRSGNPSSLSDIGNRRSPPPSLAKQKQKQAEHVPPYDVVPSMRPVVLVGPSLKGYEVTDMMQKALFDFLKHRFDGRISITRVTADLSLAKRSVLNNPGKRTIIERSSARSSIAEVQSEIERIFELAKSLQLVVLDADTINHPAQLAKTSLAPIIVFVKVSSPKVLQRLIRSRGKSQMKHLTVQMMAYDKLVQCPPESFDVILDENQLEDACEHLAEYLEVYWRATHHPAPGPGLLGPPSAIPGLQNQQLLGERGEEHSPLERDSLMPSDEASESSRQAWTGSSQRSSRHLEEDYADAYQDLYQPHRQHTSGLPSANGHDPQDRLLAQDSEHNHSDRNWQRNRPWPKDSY

SMILES | IC50 [1] [µM] | IC50 [µM]
Cc1cccc(C)c1CN1C[C@H]2CC[C@H](NC(=O)C(c3ccccc3)C(C)C)[C@H]2C1 (stereo partly drawn) [Example 93, N-[(3aR,4S,6aS)-2-(2,6-dimethylbenzyl)octahydrocyclopenta[c]pyrrol-4-yl]-3-methyl-2-phenylbutanamide] | 3.26 | –
O=C(N[C@H]1CC[C@H]2CN(Cc3cccc(C(F)(F)F)c3)C[C@H]21)C(C1CCCCC1)C1CCCCC1 (relative stereo) [Example 124, 2,2-dicyclohexyl-N-{(3aS*,4S*,6aR*)-2-[3-(trifluoromethyl)benzyl]octahydrocyclopenta[c]pyrrol-4-yl}acetamide] | – | 1.07
O=C(N[C@H]1CC[C@H]2CNC[C@H]21)C(C1CCCCC1)C1CCCCC1 [Example 53, 2,2-dicyclohexyl-N-[(3aS,4S,6aR)-octahydrocyclopenta[c]pyrrol-4-yl]acetamide] | – | 8.54
CC(C)C(C(=O)N[C@H]1CC[C@@H]2CN(CCCCCC(c3ccc(F)cc3)c3ccc(F)cc3)C[C@@H]21)c1ccccc1 (stereo partly drawn) [Example 107, N-{(3aR,4S,6aS)-2-[6,6-bis(4-fluorophenyl)hexyl]octahydrocyclopenta[c]pyrrol-4-yl}-3-methyl-2-phenylbutanamide] | 1.14 | –
CC(C)C(C(=O)N[C@H]1CC[C@@H]2CN(CCCC(c3ccc(F)cc3)c3ccc(F)cc3)C[C@@H]21)c1ccccc1 (stereo partly drawn) [Example 118, N-{(3aR,4S,6aS)-2-[4,4-bis(4-fluorophenyl)butyl]octahydrocyclopenta[c]pyrrol-4-yl}-3-methyl-2-phenylbutanamide] | 1.04 | –
CC(C)C(C(=O)N[C@H]1CC[C@@H]2CN(Cc3ccc(F)cc3)C[C@@H]21)c1ccccc1 (stereo partly drawn) [Example 89, N-[(3aR,4S,6aS)-2-(4-fluorobenzyl)octahydrocyclopenta[c]pyrrol-4-yl]-3-methyl-2-phenylbutanamide] | 2.01 | –
Fc1ccc(-c2nc(CN[C@H]3CC[C@@H]4CN(c5cccc(C(F)(F)F)n5)C[C@@H]43)co2)cc1 [Example 743, (3aR,4S,6aS)-N-{[2-(4-fluorophenyl)-1,3-oxazol-4-yl]methyl}-2-[6-(trifluoromethyl)pyridin-2-yl]octahydrocyclopenta[c]pyrrol-4-amine] | – | 1
O=C(N[C@H]1CC[C@@H]2CN(c3cccc(C(F)(F)F)n3)C[C@@H]21)c1cc(C2CC2)n[nH]1 [Example 583, 3-cyclopropyl-N-{(3aR,4S,6aS)-2-[6-(trifluoromethyl)pyridin-2-yl]octahydrocyclopenta[c]pyrrol-4-yl}-1H-pyrazole-5-carboxamide] | – | 1.12
O=C(CCCC(c1ccc(F)cc1)c1ccc(F)cc1)N[C@H]1CC[C@H]2CN(Cc3cccc(C(F)(F)F)c3)C[C@H]21 (relative stereo) [Example 132, 5,5-bis(4-fluorophenyl)-N-{(3aS*,4S*,6aR*)-2-[3-(trifluoromethyl)benzyl]octahydrocyclopenta[c]pyrrol-4-yl}pentanamide] | 1.13 | –
CN[C@@H](CC(C)C)C(=O)N[C@H]1CC[C@@H]2CN(c3ccc(F)cc3)C[C@@H]21 [Example 620, N-[(3aR,4S,6aS)-2-(4-fluorophenyl)octahydrocyclopenta[c]pyrrol-4-yl]-N^2-methyl-L-leucinamide] | – | 5.31
Cc1cccc(N2C[C@H]3CC[C@H](NC(=O)[C@@H]4C[C@@H](F)CN4)[C@H]3C2)c1 [Example 642, (4R)-4-fluoro-N-[(3aR,4S,6aS)-2-(3-methylphenyl)octahydrocyclopenta[c]pyrrol-4-yl]-L-prolinamide] | – | 15.6
CCC[C@H](NC)C(=O)N[C@@H]1CC[C@H]2CN(Cc3ccc(F)cc3)C[C@H]21 [Example 372, N^1-[(3aS,4R,6aR)-2-(4-fluorobenzyl)octahydrocyclopenta[c]pyrrol-4-yl]-N^2-methyl-L-norvalinamide] | – | > 9
CC(C)(C)C(C(=O)N[C@@H]1CC[C@H]2CN(Cc3ccccc3)C[C@H]21)c1ccccc1 (stereo partly drawn) [Example 30, N-[(3aS,4R,6aR)-2-benzyloctahydrocyclopenta[c]pyrrol-4-yl]-3,3-dimethyl-2-phenylbutanamide] | 1.81 | –
Fc1cnc2[nH]cc(CN[C@H]3CC[C@@H]4CN(c5cccc(C(F)(F)F)n5)C[C@@H]43)c2c1 [Example 690, (3aR,4S,6aS)-N-[(5-fluoro-1H-pyrrolo[2,3-b]pyridin-3-yl)methyl]-2-[6-(trifluoromethyl)pyridin-2-yl]octahydrocyclopenta[c]pyrrol-4-amine] | – | 0.75
O=C(N[C@H]1CC[C@@H]2CN(c3cccc(Cl)c3)C[C@@H]21)[C@@H]1C[C@@H](F)CN1 [Example 643, (4R)-N-[(3aR,4S,6aS)-2-(3-chlorophenyl)octahydrocyclopenta[c]pyrrol-4-yl]-4-fluoro-L-prolinamide] | – | 3.57
CN[C@@H](CC(C)C)C(=O)N[C@H]1CC[C@@H]2CN(c3ccc(F)c(OC(F)(F)F)c3)C[C@@H]21 [Example 772, N-{(3aR,4S,6aS)-2-[4-fluoro-3-(trifluoromethoxy)phenyl]octahydrocyclopenta[c]pyrrol-4-yl}-N^2-methyl-L-leucinamide] | – | 1.08
FC(F)(F)c1cccc(N2C[C@H]3CC[C@H](NCc4nc(-c5ccc(Cl)cc5)c[nH]4)[C@H]3C2)n1 [Example 745, (3aR,4S,6aS)-N-{[4-(4-chlorophenyl)-1H-imidazol-2-yl]methyl}-2-[6-(trifluoromethyl)pyridin-2-yl]octahydrocyclopenta[c]pyrrol-4-amine] | – | 3.51

Second part, the compound after the results:

IC50 [1] [µM] | IC50 [µM] | SMILES
1.81 | – | CC(C)C[C@H](NS(=O)(=O)CC(C)C)C(=O)N[C@@H]1CC[C@H]2CN(Cc3cccc(C(F)(F)F)c3)C[C@H]21 [Example 173, N^2-(isobutylsulfonyl)-N^1-{(3aS,4R,6aR)-2-[3-(trifluoromethyl)benzyl]octahydrocyclopenta[c]pyrrol-4-yl}-L-leucinamide]
– | 3.34 | CN[C@@H](CC(C)C)C(=O)N[C@H]1CC[C@@H]2CN(c3cncc(C(F)(F)F)c3)C[C@@H]21 [Example 736, N^2-methyl-N-{(3aR,4S,6aS)-2-[5-(trifluoromethyl)pyridin-3-yl]octahydrocyclopenta[c]pyrrol-4-yl}-L-leucinamide]
10.6 | – | CCC[C@H](NC)C(=O)N[C@H]1CC[C@@H]2CN(Cc3cccc(C(F)(F)F)c3)C[C@@H]21 [Example 376, N^2-methyl-N^1-{(3aR,4S,6aS)-2-[3-(trifluoromethyl)benzyl]octahydrocyclopenta[c]pyrrol-4-yl}-L-norvalinamide]
8.99 | – | CN(C(=O)OC(C)(C)C)[C@@H](CC(C)(C)C)C(=O)N(CC1CC1)[C@H]1CC[C@@H]2CN(S(=O)(=O)c3ccc(C(F)(F)F)cc3)C[C@@H]21 [Example 298]
– | 2.98 | CN[C@@H](CC(C)C)C(=O)N[C@@H]1CC[C@H]2CN(c3ccc(C(F)(F)F)cn3)C[C@H]21 [Example 738, N^2-methyl-N-{(3aS,4R,6aR)-2-[5-(trifluoromethyl)pyridin-2-yl]octahydrocyclopenta[c]pyrrol-4-yl}-L-leucinamide]
0.92 | – | CC(C)C[C@@H](C(=O)N[C@@H]1CC[C@H]2CN(Cc3cccc(C(F)(F)F)c3)C[C@H]21)N(C)S(C)(=O)=O [Example 169, N^2-methyl-N^2-(methylsulfonyl)-N^1-{(3aS,4R,6aR)-2-[3-(trifluoromethyl)benzyl]octahydrocyclopenta[c]pyrrol-4-yl}-L-leucinamide]
1.71 | – | CCC[C@H](NC1CCCC1)C(=O)N[C@H]1CC[C@@H]2CN(S(=O)(=O)c3ccc(C(F)(F)F)cc3)C[C@@H]21 [Example 506, N^2-cyclopentyl-N^1-((3aR,4S,6aS)-2-{[4-(trifluoromethyl)phenyl]sulfonyl}octahydrocyclopenta[c]pyrrol-4-yl)-L-norvalinamide]
– | 3.59 | CC(C)NCC(=O)N[C@H]1CC[C@@H]2CN(c3ccc(C(F)(F)F)cc3)C[C@@H]21 [Example 761, N^2-isopropyl-N-{(3aR,4S,6aS)-2-[4-(trifluoromethyl)phenyl]octahydrocyclopenta[c]pyrrol-4-yl}glycinamide]
0.82 | – | CC(C)C[C@@H](NC(=O)OC(C)(C)C)C(=O)N[C@H]1CC[C@H]2CN(Cc3cccc(C(F)(F)F)c3)C[C@H]21 (stereo in doubt) [Example 138, N^2-(tert-butyloxycarbonyl)-N^1-{(3aS*,4S*,6aR*)-2-[3-(trifluoromethyl)benzyl]octahydrocyclopenta[c]pyrrol-4-yl}-D-leucinamide]
1.59 | – | CC(C)[C@@H](CC(=O)N[C@H]1CC[C@@H]2CN(S(=O)(=O)c3cccc(C(F)(F)F)c3)C[C@@H]21)N(C)C [Example 498, (3R)-3-(dimethylamino)-4-methyl-N-((3aR,4S,6aS)-2-{[3-(trifluoromethyl)phenyl]sulfonyl}octahydrocyclopenta[c]pyrrol-4-yl)pentanamide]
– | 4.27 | CC(C)(C)NC(=O)N[C@H]1CC[C@@H]2CN(c3ccc(OC(F)(F)F)cc3)C[C@@H]21 [Example 778, 1-tert-butyl-3-{(3aR,4S,6aS)-2-[4-(trifluoromethoxy)phenyl]octahydrocyclopenta[c]pyrrol-4-yl}urea]
1.27 | – | O=S(=O)(c1cccc(C(F)(F)F)c1)N(C1CC1)[C@H]1CC[C@H]2CN(Cc3cccc(C(F)(F)F)c3)C[C@H]21 (relative stereo) [Example 204, N-cyclopropyl-3-(trifluoromethyl)-N-{(3aS*,4S*,6aR*)-2-[3-(trifluoromethyl)benzyl]octahydrocyclopenta[c]pyrrol-4-yl}benzenesulfonamide]
– | 0.65 | CC(C)C[C@H](NC(=O)OC(C)(C)C)C(=O)N[C@@H]1CC[C@@H]2CN(Cc3cccc(C(F)(F)F)c3)C[C@@H]21 (stereo in doubt) [Example 137, N^2-(tert-butyloxycarbonyl)-N^1-{(3aR*,4R*,6aS*)-2-[3-(trifluoromethyl)benzyl]octahydrocyclopenta[c]pyrrol-4-yl}-L-leucinamide]
2.73 | – | CCC[C@H](NC)C(=O)N[C@H]1CC[C@@H]2CN(S(=O)(=O)Cc3ccc(C(F)(F)F)cc3)C[C@@H]21 [Example 549, N^2-methyl-N^1-((3aR,4S,6aS)-2-{[4-(trifluoromethyl)benzyl]sulfonyl}octahydrocyclopenta[c]pyrrol-4-yl)-L-norvalinamide]
